What was measured:
[1] = mouse, in vivo; cited from earlier work
fish = experiment: treatment of model fish with test substances (drugs arrayed alone or in combination in the water/wells); type: in vivo; settings: monotherapy
From the text: Fish may be contacted with a test substance, it may be touched or rubbed on their surface or injected into them. A test substance may be added to water in which they are. […] There may be one or multiple fish in each well exposed to the test substance. The test substance may be added prior to the onset of the disease phenotype, concurrent with the onset of the disease phenotype, or subsequent to the onset of the disease phenotype. The same test substance may be added to different wells at different concentration. For example, test substance 1 may be added to well A1 at a concentration of 1 mM, to well A2 at a concentration of 100 uM, to well A3 at a concentration of 10 uM, to well A4 at a concentration of 1 uM and to well A5 at a concentration of 0.1 uM. Then test substance 2 to well B1 etc. The panel of test substances may be known drugs or new chemical entities.
Additionally, the test substances may be added in combination. For example, well A2 may contain test substance 1 ‘and 2, well A3 test substance 1 and 3, well B2 test substance 2 and 3. Alternatively, every well may contain test substance x, with individual wells containing a panel of additional test substances.
In other options, a population of fish in a petri dish or a tank may be employed and treated together, e.g. via addition of one or more or a combination of test substances in the water. […]

Row | SMILES | toxicity [1] | concentration showing therapeutic effects (fish) [µM]
1 | C[C@H]1c2cccc(O)c2C(=O)C2=C(O)[C@]3(O)C(=O)C(C(N)=O)=C(O)[C@@H](N(C)C)[C@@H]3[C@@H](O)[C@@H]21 [Doxycycline, doxycycline] | no apparent toxicity | 
2 | CN1C(=O)CN=C(c2ccccc2)c2cc(Cl)ccc21 [diazepam] |  | 35

— patent US20050015823A1, “Screening methods employing fish model assessment of vision” (priority 2001, published 2005)
